Experimental data reported in patent publication US20250019387A1 (Frontier Medicines Corporation, priority 0001, published 2025).

target: KRAS G12C and cRAF (Ras-binding domain) interaction (Homo sapiens (Human), UniProt P01116, C118S/C51S/C80L/G12C); test: Inhibition of KRAS G12C and cRAF binding (AlphaScreen); conditions: GMPPNP-loaded KRAS G12C, 19-20 hours incubation with compound; read-out: IC50 (Inhibition of KRAS G12C and cRAF Binding)
Method in brief: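 IC50 values come from 4-parameter nonlinear regression of AlphaScreen signal (680 nm excitation, 570 nm emission). Compound plates sat 19-20 h at room temperature before RBD and donor/acceptor beads were added in Hepes pH 7.4 buffer with 150 mM NaCl, 5 mM MgCl2, 2% DMSO for 60-90 min; biotin-AviTag-GST replaced RBD to flag assay-technology interferers.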

Sequence of KRAS G12C and cRAF (Ras-binding domain) interaction (P01116 other isoform, or with tags, fused parts or gaps G12C/C51S/C80L/C118S): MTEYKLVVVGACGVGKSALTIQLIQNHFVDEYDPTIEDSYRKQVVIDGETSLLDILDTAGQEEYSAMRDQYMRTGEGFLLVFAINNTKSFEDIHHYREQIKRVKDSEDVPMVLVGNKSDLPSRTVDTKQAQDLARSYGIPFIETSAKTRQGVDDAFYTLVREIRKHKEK

Row | SMILES | IC50 [µM]
1 | CN(c1nc(OCC23CCCN2CCC3)nc2c1CCN(c1cccc3cccc(Cl)c13)C2)[C@@H]1CCN(C(=O)/C=C/c2nc(C3CC3)no2)C1 [Example 161, (R,E)-1-(3-((7-(8-chloronaphthalen-1-yl)-2-((hexahydro-1H-pyrrolizin-7a-yl)methoxy)-5,6,7,8-tetrahydropyrido[3,4-d]pyrimidin-4-yl)(methyl)amino)pyrrolidin-1-yl)-3-(3-cyclopropyl-1,2,4-oxadiazol-5-yl)prop-2-en-1-one] | 0.01 to 0.1
2 | CN(CC1CN(C(=O)/C=C/c2nc(C3CC3)no2)C1)c1nc(OCC23CCCN2CCC3)nc2c(F)c(-c3cccc4cccc(Cl)c34)ncc12 [Example 173, (E)-1-(3-(((7-(8-chloronaphthalen-1-yl)-8-fluoro-2-((tetrahydro-1H-pyrrolizin-7a(5H)-yl)methoxy)pyrido[4,3-d]pyrimidin-4-yl)(methyl)amino)methyl)azetidin-1-yl)-3-(3-cyclopropyl-1,2,4-oxadiazol-5-yl)prop-2-en-1-one] | 0.01 to 0.1
3 | C[C@H](F)c1noc(/C=C/C(=O)N2CC(CN(C)c3nc(OC[C@@]45CCCN4C[C@H](F)C5)nc4c(F)c(-c5cccc6cccc(Cl)c56)ncc34)C2)n1 [Example 76, (E)-1-(3-(((7-(8-chloronaphthalen-1-yl)-8-fluoro-2-(((2R,7aS)-2-fluorotetrahydro-1H-pyrrolizin-7a(5H)-yl)methoxy)pyrido[4,3-d]pyrimidin-4-yl)(methyl)amino)methyl)azetidin-1-yl)-3-(3-((S)-1-fluoroethyl)-1,2,4-oxadiazol-5-yl)prop-2-en-1-one] | < 0.01
4 | C=CC(=O)N1CC[C@@H](N(C)c2nc(OC[C@@]34CCCN3C[C@H](F)C4)nc3c(F)c(-c4cccc5cccc(C#N)c45)ncc23)C1 [Example 297, 8-(4-(((R)-1-acryloylpyrrolidin-3-yl)(methyl)amino)-8-fluoro-2-(((2R,7aS)-2-fluorotetrahydro-1H-pyrrolizin-7a(5H)-yl)methoxy)pyrido[4,3-d]pyrimidin-7-yl)-1-naphthonitrile] | 0.1 to 0.5
5 | CN1CCOCC1C#CC(=O)N1CC[C@@H](N(C)c2nc(OC[C@@]34CCCN3C[C@H](F)C4)nc3c(F)c(-c4cccc5cccc(Cl)c45)ncc23)C1 (stereo partly drawn) [Example 188, 1-((R)-3-((7-(8-chloronaphthalen-1-yl)-8-fluoro-2-(((2R,7aS)-2-fluorohexahydro-1H-pyrrolizin-7a-yl)methoxy)pyrido[4,3-d]pyrimidin-4-yl)(methyl)amino)pyrrolidin-1-yl)-3-(4-methylmorpholin-3-yl)prop-2-yn-1-one] | 0.1 to 0.5
6 | CCN1CC[C@@H]1/C=C/C(=O)N1CC[C@@H](N(C)c2nc(OC[C@@]34CCCN3C[C@H](F)C4)nc3c(F)c(-c4cccc5cccc(Cl)c45)ncc23)C1 [Example 223, (E)-1-((R)-3-((7-(8-chloronaphthalen-1-yl)-8-fluoro-2-(((2R,7aS)-2-fluorotetrahydro-1H-pyrrolizin-7a(5H)-yl)methoxy)pyrido[4,3-d]pyrimidin-4-yl)(methyl)amino)pyrrolidin-1-yl)-3-((R)-1-ethylazetidin-2-yl)prop-2-en-1-one] | 0.01 to 0.1
7 | CN(CC1CN(C(=O)/C=C/c2nc(C3CC3)no2)C1)c1nc(OC[C@@]23CCCN2C[C@H](F)C3)nc2c(F)c(-c3cccc4cccc(Cl)c34)ncc12 [Example 104, (E)-1-(3-(((7-(8-chloronaphthalen-1-yl)-8-fluoro-2-(((2R,7aS)-2-fluorotetrahydro-1H-pyrrolizin-7a(5H)-yl)methoxy)pyrido[4,3-d]pyrimidin-4-yl)(methyl)amino)methyl)azetidin-1-yl)-3-(3-cyclopropyl-1,2,4-oxadiazol-5-yl)prop-2-en-1-one] | 0.1 to 0.5
8 | CN(c1nc(OC[C@@]23CCCN2C[C@H](F)C3)nc2c(F)c(-c3cccc4cccc(Cl)c34)ncc12)[C@@H]1CN(C(=O)/C=C/c2nc(C(C)(C)O)no2)C[C@H]1F [Example 217, (E)-1-((3R,4R)-3-((7-(8-chloronaphthalen-1-yl)-8-fluoro-2-(((2R,7aS)-2-fluorotetrahydro-1H-pyrrolizin-7a(5H)-yl)methoxy)pyrido[4,3-d]pyrimidin-4-yl)(methyl)amino)-4-fluoropyrrolidin-1-yl)-3-(3-(2-hydroxypropan-2-yl)-1,2,4-oxadiazol-5-yl)prop-2-en-1-one] | > 0.5
9 | CN(CC1CN(C(=O)/C=C/c2nc(C3COC3)no2)C1)c1nc(OC[C@@]23CCCN2C[C@H](F)C3)nc2c(F)c(-c3cccc4cccc(Cl)c34)ncc12 [Example 152, (E)-1-(3-(((7-(8-chloronaphthalen-1-yl)-8-fluoro-2-(((2R,7aS)-2-fluorotetrahydro-1H-pyrrolizin-7a(5H)-yl)methoxy)pyrido[4,3-d]pyrimidin-4-yl)(methyl)amino)methyl)azetidin-1-yl)-3-(3-(oxetan-3-yl)-1,2,4-oxadiazol-5-yl)prop-2-en-1-one] | < 0.01
10 | C=CC(=O)N1CC[C@@H](N(C)c2nc(OC[C@]34CCCN3C[C@H](F)C4)nc3c(F)c(-c4cccc5ccc(F)c(Cl)c45)ncc23)C1 [Example 81, 1-((R)-3-((7-(8-chloro-7-fluoronaphthalen-1-yl)-8-fluoro-2-(((2R,7aR)-2-fluorotetrahydro-1H-pyrrolizin-7a(5H)-yl)methoxy)pyrido[4,3-d]pyrimidin-4-yl)(methyl)amino)pyrrolidin-1-yl)prop-2-en-1-one] | 0.01 to 0.1
11 | C=CC(=O)N1CC[C@@H](N(C)c2nc(OC[C@@]34CCCN3C[C@H](F)C4)nc3c(F)c(-c4cc(OC(F)F)cc5cccc(Cl)c45)ncc23)C1 [Example 82, 1-((R)-3-((7-(8-chloro-3-(difluoromethoxy)naphthalen-1-yl)-8-fluoro-2-(((2R,7aS)-2-fluorotetrahydro-1H-pyrrolizin-7a(5H)-yl)methoxy)pyrido[4,3-d]pyrimidin-4-yl)(methyl)amino)pyrrolidin-1-yl)prop-2-en-1-one] | > 0.5
12 | C#Cc1c(F)ccc2cccc(-c3ncc4c(N(C)[C@@H]5CCN(C(=O)/C=C/CN6CC[C@@H](F)C6)C5)nc(OC[C@@]56CCCN5C[C@H](F)C6)nc4c3F)c12 [Example 289, (E)-1-((R)-3-((7-(8-ethynyl-7-fluoronaphthalen-1-yl)-8-fluoro-2-(((2R,7aS)-2-fluorotetrahydro-1H-pyrrolizin-7a(5H)-yl)methoxy)pyrido[4,3-d]pyrimidin-4-yl)(methyl)amino)pyrrolidin-1-yl)-4-((R)-3-fluoropyrrolidin-1-yl)but-2-en-1-one] | 0.01 to 0.1
13 | C=CC(=O)N1C[C@H](O)[C@@H](N(C)c2nc(OC[C@@]34CCCN3C[C@H](F)C4)nc3c(F)c(-c4cccc5cccc(Cl)c45)ncc23)C1 [Example 57, 1-((3S,4S)-3-((7-(8-chloronaphthalen-1-yl)-8-fluoro-2-(((2R,7aS)-2-fluorohexahydro-1H-pyrrolizin-7a-yl)methoxy)pyrido[4,3-d]pyrimidin-4-yl)(methyl)amino)-4-hydroxypyrrolidin-1-yl)prop-2-en-1-one] | 0.1 to 0.5

same assay, conditions: additional exemplary compounds; KRAS G12C and cRAF binding; read-out: RAF1 RBD IC50

Row | SMILES | IC50 [µM]
14 | C=CC(=O)N1CCC1CN(C)c1nc(OC[C@@]23CCCN2C[C@H](F)C3)nc2c1CCN(c1cccc3cccc(Cl)c13)C2 (stereo partly drawn) | > 0.5
15 | C=CS(=O)(=O)[C@H]1C[C@H](N(C)c2nc(OCC34CCCN3CCC4)nc3c2CCN(c2cccc4cccc(Cl)c24)C3)C1 | 0.1 to 0.5
16 | CN(c1nc(OCC23CCCN2CCC3)nc2c(F)c(-c3cccc4cccc(Cl)c34)ncc12)[C@@H]1CCN(C(=O)/C=C/c2nnn(C)n2)C1 | > 0.5
17 | C=CC(=O)N1CC[C@@H](Nc2nc(OC[C@@]34CCCN3C[C@H](F)C4)nc3c2CCN(c2cccc4cccc(Cl)c24)C3)C1 | > 0.5
18 | C=CC(=O)N1CC(CN(C)c2nc(OC[C@@]34CCCN3C[C@H](F)C4)nc3c(F)c(-c4cccc5cccc(Cl)c45)ncc23)C1 | 0.01 to 0.1
19 | CN(c1nc(OCC23CCCN2CCC3)nc2c1CCN(c1cccc3ccc(F)c(Cl)c13)C2)[C@@H]1CCN(C#N)C1 | 0.01 to 0.1
20 | CN(C)C/C=C/C(=O)N1CC[C@@H](N(C)c2nc(OCC34CCCN3CCC4)nc3c(F)c(-c4cccc5ccc(F)c(Cl)c45)ncc23)C1 | 0.01 to 0.1
21 | O=C(/C=C/CN1CCOCC1)N1CC2(CCN(c3nc(OC[C@@]45CCCN4C[C@H](F)C5)nc4c(F)c(-c5cccc6cccc(Cl)c56)ncc34)C2)C1 | > 0.5
22 | C=CC(=O)N1CC(CN(C)c2nc(OCC34CCCN3CCC4)nc3c(F)c(-c4cccc5cccc(Cl)c45)ncc23)C1 | 0.01 to 0.1
23 | C=CC(=O)N1C[C@H](N(C)c2nc(OCC34CCCN3CCC4)nc3c2CCN(c2cccc4cccc(Cl)c24)C3)CC1C#N (stereo partly drawn) | 0.1 to 0.5
24 | CN(c1nc(OCC23CCCN2CCC3)nc2c(F)c(-c3cccc4cccc(Cl)c34)ncc12)[C@@H]1CCN(C#N)C1 | < 0.01
25 | N#CN1CC[C@H]2[C@@H]1CCN2c1nc(OC[C@@]23CCCN2C[C@H](F)C3)nc2c(F)c(-c3cccc4cccc(Cl)c34)ncc12 | > 0.5

target: KRAS G12C and PI3Ka (Ras-binding domain) interaction (Homo sapiens (Human), UniProt P01116, C118S/C51S/C80L/G12C); test: Inhibition of KRAS G12C and PI3Ka binding (AlphaScreen); conditions: GMPPNP-loaded KRAS G12C, 2 hours incubation with compound; read-out: PI3Ka RBD IC50
Protocol: Compounds were diluted in 100% DMSO and each compound concentration was spotted at 200 nl/well onto low volume, white 384 well plates. […] The KRAS GT2C was diluted in 25 mM Hepes, pH 7.4, 150 mM NaCl, 5 mMv MgCl2, 0.0100 TritonX-100 and 10 μM GMPPNP and added at 10 ul/well to compound-spotted plates resulting in a […] concentration of 2%. Plates were incubated for 2 hours. A mixture of RBD and the AlphaScreen streptavidin donor and nickel chelate acceptor beads diluted in 25 mMv Hepes, pH 7.4, 150 mMv NaCl, 5 mM MgCl2, 0.0100 TritonX-100 and 2% DMSO was then added at 10 ul/well and incubated for 60-90 minutes before the samples were read for emission at 570 nm after excitation of the donor beads at 680 nm. All incubations were performed at room temperature. […] Final assay conditions were 1.5 nM KRAS GT2C, 100 nM RBD, 1.25 ug/ml of AlphaScreen donor beads and 10 μg/ml AlphaLISA acceptor beads. IC50S were determined using nonlinear regression fit of [inhibitor]vs. response (4 parameters). […]

Sequence of KRAS G12C and PI3Ka (Ras-binding domain) interaction (P01116 other isoform, or with tags, fused parts or gaps G12C/C51S/C80L/C118S): as above

Row | SMILES | IC50 [µM]
26 | CN(c1nc(OCC23CCCN2CCC3)nc2c1CCN(c1cccc3cccc(Cl)c13)C2)[C@@H]1CCN(C(=O)/C=C/c2nc(C3CC3)no2)C1 [Example 161, (R,E)-1-(3-((7-(8-chloronaphthalen-1-yl)-2-((hexahydro-1H-pyrrolizin-7a-yl)methoxy)-5,6,7,8-tetrahydropyrido[3,4-d]pyrimidin-4-yl)(methyl)amino)pyrrolidin-1-yl)-3-(3-cyclopropyl-1,2,4-oxadiazol-5-yl)prop-2-en-1-one] | 0.01 to 0.1
27 | CN(CC1CN(C(=O)/C=C/c2nc(C3CC3)no2)C1)c1nc(OCC23CCCN2CCC3)nc2c(F)c(-c3cccc4cccc(Cl)c34)ncc12 [Example 173, (E)-1-(3-(((7-(8-chloronaphthalen-1-yl)-8-fluoro-2-((tetrahydro-1H-pyrrolizin-7a(5H)-yl)methoxy)pyrido[4,3-d]pyrimidin-4-yl)(methyl)amino)methyl)azetidin-1-yl)-3-(3-cyclopropyl-1,2,4-oxadiazol-5-yl)prop-2-en-1-one] | 0.01 to 0.1
